Assay results reported in ChEMBL document CHEMBL1148776, “Structure-based optimization of protein tyrosine phosphatase 1B inhibitors: from the active site to the second phosphotyrosine binding site” (J Med Chem, 2007).

Columns and labels:
[1] = target: Receptor-type tyrosine-protein phosphatase F (Homo sapiens, UniProt P10586); experiment: Inhibition of human recombinant LAR
[2] = Drug level in C57/B6 mouse liver at 10 mg/kg, ip after 7 hrs; assay type: ADME, organism-based; parameters: dose 10 mg/kg, route intraperitoneal; conditions: read-out: Drug uptake
Cytochrome P450 2C19 = Cytochrome P450 2C19 (Homo sapiens, UniProt P33261); experiment: Inhibition of CYP2C19; assay type: ADME
Sequence of Cytochrome P450 2C19 (P33261 whole entry): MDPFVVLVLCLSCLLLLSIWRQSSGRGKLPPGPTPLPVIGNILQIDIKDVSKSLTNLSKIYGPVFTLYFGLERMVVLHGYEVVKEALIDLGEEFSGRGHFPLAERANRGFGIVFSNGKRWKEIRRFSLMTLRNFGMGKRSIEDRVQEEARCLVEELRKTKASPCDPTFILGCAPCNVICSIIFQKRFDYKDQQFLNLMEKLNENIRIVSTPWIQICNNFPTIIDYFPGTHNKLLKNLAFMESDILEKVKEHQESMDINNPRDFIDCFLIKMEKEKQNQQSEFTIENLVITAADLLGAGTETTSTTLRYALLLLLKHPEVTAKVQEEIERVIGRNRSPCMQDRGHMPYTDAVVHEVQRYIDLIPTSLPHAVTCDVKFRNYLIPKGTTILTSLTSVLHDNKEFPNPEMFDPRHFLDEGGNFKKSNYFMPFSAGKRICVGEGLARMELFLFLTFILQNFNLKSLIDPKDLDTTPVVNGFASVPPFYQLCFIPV

[3] = Permeability coefficient across human Caco-2 cells; assay type: ADME, cell-based; conditions: read-out: permeability
Cytochrome P450 2A6 = target: T1, Cytochrome P450 2A6 (Homo sapiens, UniProt P11509); experiment: Inhibition of CYP2A6; assay type: ADME
T1 sequence (P11509 whole entry): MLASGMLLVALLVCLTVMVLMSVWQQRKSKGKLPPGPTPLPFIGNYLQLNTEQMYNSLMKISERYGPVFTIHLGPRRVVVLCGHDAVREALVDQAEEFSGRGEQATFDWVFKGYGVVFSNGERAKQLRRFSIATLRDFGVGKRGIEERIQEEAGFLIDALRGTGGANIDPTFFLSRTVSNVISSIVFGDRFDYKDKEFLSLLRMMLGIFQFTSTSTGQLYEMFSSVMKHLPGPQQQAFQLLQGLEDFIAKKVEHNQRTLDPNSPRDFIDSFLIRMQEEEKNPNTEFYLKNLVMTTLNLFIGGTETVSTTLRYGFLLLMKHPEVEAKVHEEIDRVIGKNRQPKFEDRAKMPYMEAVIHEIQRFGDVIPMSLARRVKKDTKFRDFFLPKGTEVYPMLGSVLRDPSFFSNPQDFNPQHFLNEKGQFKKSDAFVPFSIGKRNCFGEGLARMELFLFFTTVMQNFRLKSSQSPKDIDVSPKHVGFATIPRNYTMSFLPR

[4] = Drug level in C57/B6 mouse plasma at 10 mg/kg, ip after 7 hrs; assay type: ADME, organism-based; parameters: dose 10 mg/kg, route intraperitoneal; conditions: read-out: Drug uptake
Cytochrome P450 1A2 = target: T2, Cytochrome P450 1A2 (Homo sapiens, UniProt P05177); experiment: Inhibition of CYP1A2; assay type: ADME
T2 sequence (P05177 whole entry): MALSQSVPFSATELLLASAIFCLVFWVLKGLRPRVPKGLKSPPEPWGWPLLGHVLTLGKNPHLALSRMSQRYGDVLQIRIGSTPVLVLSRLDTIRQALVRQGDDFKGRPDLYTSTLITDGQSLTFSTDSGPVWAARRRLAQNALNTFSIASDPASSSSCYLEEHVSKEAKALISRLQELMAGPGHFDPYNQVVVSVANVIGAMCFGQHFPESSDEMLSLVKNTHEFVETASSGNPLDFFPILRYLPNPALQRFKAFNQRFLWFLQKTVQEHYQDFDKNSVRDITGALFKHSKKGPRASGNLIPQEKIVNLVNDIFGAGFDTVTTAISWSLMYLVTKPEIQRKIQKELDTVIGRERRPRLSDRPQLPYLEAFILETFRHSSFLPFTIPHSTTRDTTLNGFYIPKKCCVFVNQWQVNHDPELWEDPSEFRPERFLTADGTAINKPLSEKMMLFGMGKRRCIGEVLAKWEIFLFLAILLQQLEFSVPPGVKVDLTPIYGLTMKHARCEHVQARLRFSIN

[5] = Drug level in C57/B6 mouse liver at 10 mg/kg, ip after 1 hr; assay type: ADME, organism-based; parameters: dose 10 mg/kg, route intraperitoneal; conditions: read-out: Drug uptake
[6] = Half life in Sprague-Dawley rat at 2 mg/kg, iv; assay type: ADME, organism-based; parameters: dose 2 mg/kg, route intravenous; conditions: in vivo
Cytochrome P450 2C8 = target: T3, Cytochrome P450 2C8 (Homo sapiens, UniProt P10632); experiment: Inhibition of CYP2C8; assay type: ADME
T3 sequence (P10632 whole entry): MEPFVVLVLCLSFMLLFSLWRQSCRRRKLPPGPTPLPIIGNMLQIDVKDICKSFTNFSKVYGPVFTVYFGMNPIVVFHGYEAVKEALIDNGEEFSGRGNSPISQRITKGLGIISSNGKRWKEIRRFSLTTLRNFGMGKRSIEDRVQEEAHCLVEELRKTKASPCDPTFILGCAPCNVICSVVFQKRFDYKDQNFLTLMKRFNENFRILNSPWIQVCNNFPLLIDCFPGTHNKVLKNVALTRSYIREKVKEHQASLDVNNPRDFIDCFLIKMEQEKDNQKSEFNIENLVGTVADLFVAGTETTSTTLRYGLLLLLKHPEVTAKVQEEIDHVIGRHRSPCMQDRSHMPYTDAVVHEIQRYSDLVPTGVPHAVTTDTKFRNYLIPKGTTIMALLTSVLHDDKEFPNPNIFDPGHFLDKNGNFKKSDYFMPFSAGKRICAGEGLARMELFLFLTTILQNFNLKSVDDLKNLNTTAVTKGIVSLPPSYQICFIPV

[7] = target: T4, Receptor-type tyrosine-protein phosphatase C (Homo sapiens, UniProt P08575); experiment: Inhibition of human recombinant CD45
T4 sequence (P08575 whole entry): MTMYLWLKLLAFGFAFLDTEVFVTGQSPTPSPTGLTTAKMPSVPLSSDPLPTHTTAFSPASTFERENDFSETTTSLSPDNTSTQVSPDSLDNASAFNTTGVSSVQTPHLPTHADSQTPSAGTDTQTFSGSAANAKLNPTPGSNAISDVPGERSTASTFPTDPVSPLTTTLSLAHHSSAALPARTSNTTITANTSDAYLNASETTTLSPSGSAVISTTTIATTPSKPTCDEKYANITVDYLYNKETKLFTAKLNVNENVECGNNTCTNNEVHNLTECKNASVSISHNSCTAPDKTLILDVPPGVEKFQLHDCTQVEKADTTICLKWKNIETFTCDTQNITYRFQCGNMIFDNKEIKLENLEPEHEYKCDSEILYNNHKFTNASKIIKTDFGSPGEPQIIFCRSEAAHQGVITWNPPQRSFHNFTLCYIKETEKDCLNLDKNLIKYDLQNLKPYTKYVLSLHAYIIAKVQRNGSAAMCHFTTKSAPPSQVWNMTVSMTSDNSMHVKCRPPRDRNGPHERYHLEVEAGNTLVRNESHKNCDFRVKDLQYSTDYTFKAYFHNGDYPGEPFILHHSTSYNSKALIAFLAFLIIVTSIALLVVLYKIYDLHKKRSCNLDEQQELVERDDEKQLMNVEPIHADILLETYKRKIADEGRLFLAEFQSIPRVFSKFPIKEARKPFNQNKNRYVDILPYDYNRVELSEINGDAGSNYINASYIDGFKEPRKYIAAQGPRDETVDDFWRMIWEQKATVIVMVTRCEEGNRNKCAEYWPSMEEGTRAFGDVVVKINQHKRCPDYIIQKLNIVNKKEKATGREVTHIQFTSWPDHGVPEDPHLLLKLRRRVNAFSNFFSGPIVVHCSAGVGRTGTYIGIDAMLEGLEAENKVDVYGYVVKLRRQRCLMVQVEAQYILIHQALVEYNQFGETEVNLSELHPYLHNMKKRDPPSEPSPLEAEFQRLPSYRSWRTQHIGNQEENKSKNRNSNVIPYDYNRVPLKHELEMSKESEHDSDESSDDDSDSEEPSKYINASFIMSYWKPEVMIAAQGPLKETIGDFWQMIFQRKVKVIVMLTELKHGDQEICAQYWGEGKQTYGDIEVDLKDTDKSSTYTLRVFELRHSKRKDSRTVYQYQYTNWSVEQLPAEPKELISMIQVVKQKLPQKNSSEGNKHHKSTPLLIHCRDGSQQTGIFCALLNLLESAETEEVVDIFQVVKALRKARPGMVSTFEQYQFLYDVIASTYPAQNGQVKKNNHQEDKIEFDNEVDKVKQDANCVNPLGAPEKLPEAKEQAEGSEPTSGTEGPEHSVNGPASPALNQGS

Hepatocyte = experiment: Decrease in drug uptake in rat hepatocytes in presence of verapamil; assay type: ADME, cell-based; parameters: scale not given: the % may be the effect or the level left
Cytochrome P450 2C9 = Cytochrome P450 2C9 (Homo sapiens, UniProt P11712); experiment: Inhibition of CYP2C9; assay type: ADME
Sequence of Cytochrome P450 2C9 (P11712 whole entry): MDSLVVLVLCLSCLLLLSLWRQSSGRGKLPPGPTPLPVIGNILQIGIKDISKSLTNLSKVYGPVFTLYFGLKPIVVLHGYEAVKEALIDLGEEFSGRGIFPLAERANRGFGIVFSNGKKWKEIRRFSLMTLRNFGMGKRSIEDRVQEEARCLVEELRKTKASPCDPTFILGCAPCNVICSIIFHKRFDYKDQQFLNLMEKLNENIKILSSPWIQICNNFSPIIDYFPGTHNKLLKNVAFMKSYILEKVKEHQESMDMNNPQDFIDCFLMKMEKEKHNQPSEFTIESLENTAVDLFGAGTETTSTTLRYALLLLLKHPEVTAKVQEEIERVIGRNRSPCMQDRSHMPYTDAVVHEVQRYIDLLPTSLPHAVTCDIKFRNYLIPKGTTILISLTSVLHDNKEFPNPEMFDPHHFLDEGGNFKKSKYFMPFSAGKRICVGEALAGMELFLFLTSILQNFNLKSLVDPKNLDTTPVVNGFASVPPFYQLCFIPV

[8] = Drug level in C57/B6 mouse muscle at 10 mg/kg, ip after 1 hr; assay type: ADME, organism-based, Muscle tissue; parameters: dose 10 mg/kg, route intraperitoneal; conditions: read-out: Drug uptake
[9] = Drug level in C57/B6 mouse muscle at 10 mg/kg, ip after 7 hrs; assay type: ADME, organism-based, Muscle tissue; parameters: dose 10 mg/kg, route intraperitoneal; conditions: read-out: Drug uptake
[10] = Plasma clearance in Sprague-Dawley rat at 2 mg/kg, iv; assay type: ADME, organism-based; parameters: dose 2 mg/kg, route intravenous
[11] = Cmax in C57/B6 mouse plasma at 10 mg/kg, ip after 1 hr; assay type: ADME, organism-based; parameters: dose 10 mg/kg, route intraperitoneal
[12] = Stability in rat liver microsomes; assay type: ADME, Microsome
Cytochrome P450 3A4 = Cytochrome P450 3A4 (Homo sapiens, UniProt P08684); experiment: Inhibition of CYP3A4; assay type: ADME
Sequence of Cytochrome P450 3A4 (P08684 whole entry): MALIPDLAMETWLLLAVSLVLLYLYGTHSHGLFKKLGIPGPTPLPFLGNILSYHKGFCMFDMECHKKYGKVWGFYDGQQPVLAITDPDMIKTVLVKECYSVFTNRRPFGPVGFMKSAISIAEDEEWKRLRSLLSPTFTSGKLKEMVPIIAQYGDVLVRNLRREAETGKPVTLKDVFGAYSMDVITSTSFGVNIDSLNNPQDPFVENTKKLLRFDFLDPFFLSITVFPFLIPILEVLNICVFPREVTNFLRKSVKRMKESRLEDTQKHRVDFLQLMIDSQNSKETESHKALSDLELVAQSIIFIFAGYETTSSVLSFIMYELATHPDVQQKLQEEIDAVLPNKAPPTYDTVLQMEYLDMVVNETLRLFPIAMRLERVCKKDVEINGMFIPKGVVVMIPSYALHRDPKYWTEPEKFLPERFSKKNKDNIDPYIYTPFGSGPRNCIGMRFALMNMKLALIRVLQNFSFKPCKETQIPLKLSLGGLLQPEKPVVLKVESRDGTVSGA

[13] = Stability in human liver microsomes; assay type: ADME, Microsome
[14] = Stability in mouse liver microsomes; assay type: ADME, Microsome
[15] = Aqueous solubility at pH 7.4; assay type: physicochemical
Cytochrome P450 2D6 = Cytochrome P450 2D6 (Homo sapiens, UniProt P10635); experiment: Inhibition of CYP2D6; assay type: ADME
Sequence of Cytochrome P450 2D6 (P10635 whole entry): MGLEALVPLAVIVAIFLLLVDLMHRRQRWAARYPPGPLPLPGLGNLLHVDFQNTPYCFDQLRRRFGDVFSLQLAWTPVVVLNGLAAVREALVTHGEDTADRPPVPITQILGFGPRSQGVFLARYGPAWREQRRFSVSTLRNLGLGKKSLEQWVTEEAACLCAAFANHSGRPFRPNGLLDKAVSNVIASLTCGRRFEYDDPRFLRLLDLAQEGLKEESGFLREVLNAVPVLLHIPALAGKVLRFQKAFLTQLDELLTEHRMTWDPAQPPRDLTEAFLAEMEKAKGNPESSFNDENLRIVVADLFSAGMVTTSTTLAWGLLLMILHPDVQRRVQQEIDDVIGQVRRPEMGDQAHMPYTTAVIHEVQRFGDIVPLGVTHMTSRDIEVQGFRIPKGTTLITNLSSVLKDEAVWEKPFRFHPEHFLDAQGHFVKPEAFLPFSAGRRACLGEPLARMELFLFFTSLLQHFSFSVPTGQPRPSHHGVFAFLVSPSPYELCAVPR

Sequence of Receptor-type tyrosine-protein phosphatase F (P10586 whole entry): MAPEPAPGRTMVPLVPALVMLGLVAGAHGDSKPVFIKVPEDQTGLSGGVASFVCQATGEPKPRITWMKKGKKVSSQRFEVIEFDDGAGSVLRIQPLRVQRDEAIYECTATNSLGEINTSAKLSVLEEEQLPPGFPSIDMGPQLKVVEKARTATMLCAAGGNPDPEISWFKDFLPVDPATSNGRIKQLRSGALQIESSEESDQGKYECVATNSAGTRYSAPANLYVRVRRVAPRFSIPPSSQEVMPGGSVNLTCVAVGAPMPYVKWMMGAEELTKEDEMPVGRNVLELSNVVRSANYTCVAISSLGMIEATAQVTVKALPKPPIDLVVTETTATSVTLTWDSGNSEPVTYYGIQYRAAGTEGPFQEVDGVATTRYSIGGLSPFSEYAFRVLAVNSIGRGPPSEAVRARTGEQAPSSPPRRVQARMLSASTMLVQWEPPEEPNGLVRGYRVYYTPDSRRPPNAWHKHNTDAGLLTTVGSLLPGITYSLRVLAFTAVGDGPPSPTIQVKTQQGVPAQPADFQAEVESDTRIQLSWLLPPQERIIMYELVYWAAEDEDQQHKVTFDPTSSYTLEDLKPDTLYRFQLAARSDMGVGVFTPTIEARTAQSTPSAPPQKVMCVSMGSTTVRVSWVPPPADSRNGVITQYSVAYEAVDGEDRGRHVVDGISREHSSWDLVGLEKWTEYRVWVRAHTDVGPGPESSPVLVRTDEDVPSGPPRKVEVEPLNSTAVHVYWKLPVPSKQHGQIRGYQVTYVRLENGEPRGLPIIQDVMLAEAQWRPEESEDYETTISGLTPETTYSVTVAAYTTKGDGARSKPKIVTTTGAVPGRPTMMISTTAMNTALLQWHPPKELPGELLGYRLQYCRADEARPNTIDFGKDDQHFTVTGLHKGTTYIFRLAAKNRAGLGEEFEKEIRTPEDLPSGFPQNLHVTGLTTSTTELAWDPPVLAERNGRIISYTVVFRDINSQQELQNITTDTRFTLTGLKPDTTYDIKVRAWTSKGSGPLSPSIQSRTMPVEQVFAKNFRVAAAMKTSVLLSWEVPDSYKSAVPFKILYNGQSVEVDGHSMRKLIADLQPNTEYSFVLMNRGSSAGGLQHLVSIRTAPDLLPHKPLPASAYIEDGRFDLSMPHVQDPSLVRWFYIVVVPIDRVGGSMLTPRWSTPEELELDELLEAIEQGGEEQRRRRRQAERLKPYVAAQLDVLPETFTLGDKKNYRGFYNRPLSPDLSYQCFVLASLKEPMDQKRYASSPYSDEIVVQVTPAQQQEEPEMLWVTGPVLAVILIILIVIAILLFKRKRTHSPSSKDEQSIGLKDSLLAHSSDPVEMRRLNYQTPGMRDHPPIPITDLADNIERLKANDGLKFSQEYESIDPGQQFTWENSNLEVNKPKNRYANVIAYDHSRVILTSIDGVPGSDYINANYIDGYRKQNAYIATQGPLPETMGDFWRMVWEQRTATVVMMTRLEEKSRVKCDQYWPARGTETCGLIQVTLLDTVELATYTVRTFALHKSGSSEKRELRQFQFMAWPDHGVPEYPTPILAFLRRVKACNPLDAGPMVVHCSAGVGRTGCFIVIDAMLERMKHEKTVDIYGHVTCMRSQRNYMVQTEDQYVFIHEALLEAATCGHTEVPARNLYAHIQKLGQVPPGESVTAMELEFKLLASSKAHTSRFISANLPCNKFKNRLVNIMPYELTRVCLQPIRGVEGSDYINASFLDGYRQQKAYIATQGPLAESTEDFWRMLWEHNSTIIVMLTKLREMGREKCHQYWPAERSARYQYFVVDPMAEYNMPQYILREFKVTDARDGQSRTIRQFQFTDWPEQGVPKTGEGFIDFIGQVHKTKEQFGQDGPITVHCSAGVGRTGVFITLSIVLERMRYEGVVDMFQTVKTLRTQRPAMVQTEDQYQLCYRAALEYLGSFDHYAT

Ki [1]: > 500 µM | concentration at 7 h [2]: 170 nM | IC50 (Cytochrome P450 2C19): > 500 µM | Papp [3]: < 1 ×10⁻⁶ cm/s | IC50 (Cytochrome P450 2A6): > 500 µM | concentration at 7 h [4]: 370 nM | IC50 (Cytochrome P450 1A2): > 500 µM | concentration at 1 h [5]: 6900 nM | half-life [6]: 10 h | IC50 (Cytochrome P450 2C8): > 500 µM | Ki [7]: 77 µM | Activity (Hepatocyte): 70% | IC50 (Cytochrome P450 2C9): 40 µM | concentration at 1 h [8]: 3500 nM | concentration at 7 h [9]: 260 nM | clearance [10]: 7 mL/min/kg | Cmax [11]: 15200 nM | half-life [12]: 0.767 h | IC50 (Cytochrome P450 3A4): > 500 µM | half-life [13]: > 1 h | half-life [14]: > 1 h | solubility [15]: > 100 µg/mL | IC50 (Cytochrome P450 2D6): > 500 µM
Compound: O=C(O)COc1c(C(=O)O)sc(-c2cccc(NC3CCN(S(=O)(=O)Cc4ccccc4)CC3)c2)c1Br
